Assay [1] has as its target T1, Dual specificity tyrosine-phosphorylation-regulated kinase 1A (Homo sapiens, UniProt Q13627). Put plainly: Inhibition of DYRK1A (unknown origin) using Ulight-MBP as substrate and ATP as co-substrate incubated for 40 mins and measured after 1 hr by TR-FRET assay. (In general: In TR-FRET formats the signal depends on donor and acceptor labels being close together.)
Assay [2] concerns the target Cyclin-dependent kinase 9 (Homo sapiens, UniProt P50750). Put plainly: Inhibition of CDK9 (unknown origin) using Ulight-MBP as substrate and ATP as co-substrate incubated for 40 mins and measured after 1 hr by TR-FRET assay.
For assay [3], the target named is T1, Dual specificity tyrosine-phosphorylation-regulated kinase 1A. Put plainly: Inhibition of wild type full length DYRK1A (unknown origin) in human U2OS cells assessed as reduction in pSER520 autophosphorylation incubated for 5 hrs by western blot analysis. The assay is classed as cell-based. For orientation: Immunoblotting shows a protein as a band on a membrane.

The target in assay [4] is T2, Dual specificity tyrosine-phosphorylation-regulated kinase 2 (Homo sapiens, UniProt Q92630).
T2 sequence (Q92630 whole entry): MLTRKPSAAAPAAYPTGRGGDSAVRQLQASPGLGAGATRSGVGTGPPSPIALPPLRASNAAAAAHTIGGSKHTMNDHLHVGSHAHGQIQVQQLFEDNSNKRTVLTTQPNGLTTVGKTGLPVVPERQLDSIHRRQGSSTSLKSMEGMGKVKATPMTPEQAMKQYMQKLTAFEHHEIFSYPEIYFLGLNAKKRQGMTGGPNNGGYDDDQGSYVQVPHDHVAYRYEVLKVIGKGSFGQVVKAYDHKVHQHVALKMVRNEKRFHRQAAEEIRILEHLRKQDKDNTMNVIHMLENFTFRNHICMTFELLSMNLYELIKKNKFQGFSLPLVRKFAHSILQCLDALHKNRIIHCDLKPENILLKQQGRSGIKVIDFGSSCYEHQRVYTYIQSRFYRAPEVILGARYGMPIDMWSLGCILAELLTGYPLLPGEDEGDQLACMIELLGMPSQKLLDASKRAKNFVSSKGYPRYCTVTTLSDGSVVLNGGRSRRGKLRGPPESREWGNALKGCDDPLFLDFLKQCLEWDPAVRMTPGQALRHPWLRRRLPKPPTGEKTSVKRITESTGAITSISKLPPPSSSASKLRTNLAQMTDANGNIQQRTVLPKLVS
Put plainly: Inhibition of DYRK2 (unknown origin) using Ulight-MBP as substrate and ATP as co-substrate incubated for 40 mins and measured after 1 hr by TR-FRET assay.

Assay [5] concerns RS4-11. Kind of assay: Antitumor activity against human RS4-11 cells xenografted in BALB/c nu/nu mouse reduction in DYRK1A autophosphorylation of S520 residue at 6.25 mg/kg, po measured after 6 hrs by western blotting analysis relative to control. Further details: scale not given: the % may be the effect or the level left; call rule not given here. It is filed as functional.
In assay [6] the test system is RS4-11. Kind of assay: Antitumor activity against human RS4-11 cells xenografted in BALB/c nu/nu mouse assessed as reduction in DYRK1A autophosphorylation of S520 residue at 6.25 mg/kg, po measured after 2 hrs by western blotting analysis relative to control. It is filed as functional. Further details: scale not given: the % may be the effect or the level left. A general note: In xenograft studies the graft and the host belong to different species.

Cyclin-dependent kinase 9, sequence (P50750 whole entry): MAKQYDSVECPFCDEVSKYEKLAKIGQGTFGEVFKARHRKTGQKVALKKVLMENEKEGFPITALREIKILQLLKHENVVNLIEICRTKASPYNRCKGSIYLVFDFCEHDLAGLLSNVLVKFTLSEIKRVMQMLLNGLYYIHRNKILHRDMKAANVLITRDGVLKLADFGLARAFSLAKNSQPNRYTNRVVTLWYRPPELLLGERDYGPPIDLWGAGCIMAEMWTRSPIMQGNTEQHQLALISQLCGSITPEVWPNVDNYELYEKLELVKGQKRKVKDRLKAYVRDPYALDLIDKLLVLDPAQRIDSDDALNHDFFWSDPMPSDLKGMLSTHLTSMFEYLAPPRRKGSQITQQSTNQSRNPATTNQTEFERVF

Turning to `Nc1cc(-c2ccc3sccc3c2)cc(N)n1`, inhibition in assay [1] was half-maximal at 137 nM (IC50).
In the case of `Cc1nc2ccc(-c3cc(N)nc(N)c3)nc2n1C[C@@H](C)Oc1cccc(Br)n1`, the IC50 – broadly, the point on the concentration scale where inhibition reaches its midpoint – in assay [1] is 5 nM; in assay [2], 467 nM; in assay [3] (read-out: IC50) it was 44 nM; in assay [4], 195 nM.
Regarding `Cc1nc2ccc(-c3cc(N)nc(N)c3)nc2n1C[C@H](C)Oc1ccccc1`, the IC50 is 8 nM in assay [1], > 3000 nM in assay [2], 73 nM in assay [3] (read-out: IC50) and 22 nM in assay [4].
For the compound `Cc1nc2ccc(-c3cc(N)nc(N)c3)nc2n1CC(F)(F)F`, the Activity in the assay on RS4-11 [5] is 95%; in the assay on RS4-11 [6], 93%. In addition, in assay [4], the IC50 was found to be 6 nM.
In turn, `Nc1cc(-c2ccc3c(c2)OCCO3)cc(N)n1` came in with an IC50 in assay [1] of 11 nM.
Compound `Cc1nc2ccc(-c3cc(N)nc(N)c3)nc2n1CC(F)F` returned a half-maximal inhibitory concentration (IC50) in assay [4] of 4 nM.
Take `Nc1cc(-c2ccc3ncccc3c2)cc(N)n1`: the IC50 in assay [1] was 10 nM.
Take `Cc1nc2ccc(-c3cc(N)nc(N)c3)nc2n1C[C@@H](C)Oc1ccccc1`: the IC50 in assay [2] is > 3000 nM; in assay [3] (read-out: IC50), 111 nM; in assay [4], 46 nM.
`Cc1nc2ccc(-c3cc(N)nc(N)c3)nc2n1CCC1CCCCC1` gave an IC50 in assay [4] of 9 nM.
For `Cc1nc2ccc(-c3cc(N)nc(N)c3)nc2n1CCOc1cccc(Cl)n1`, the results for the IC50 in assay [2] and in assay [4] were 222 nM and 33 nM, respectively.
As for `Nc1cc(-c2ccc3occc3c2)cc(NCCc2ccsc2)n1`, the IC50 in assay [1] was determined as 189 nM.
In the case of `Cc1nc2ccc(-c3cc(N)nc(N)c3)nc2n1CCOc1cccc(Br)n1`, the results for the IC50 in assay [2] and in assay [4] were 289 nM and 52 nM, respectively.
With `Cc1nc2ccc(-c3cc(N)nc(N)c3)nc2n1Cc1ccc(F)cc1`, the 50% inhibitory concentration (IC50) came to 3000 nM in assay [3] (read-out: IC50) and 134 nM in assay [4].
Take `Cc1nc2ccc(-c3cc(N)nc(N)c3)nc2n1C[C@H](C)Oc1ccccn1`: the IC50 was > 3000 nM in assay [2], > 300 nM in assay [3] (read-out: IC50) and 117 nM in assay [4].
In assay [1], `CNc1cc(-c2ccc3occc3c2)cc(N)n1` had an IC50 of 17 nM.
`Cc1onc2ccc(-c3cc(N)nc(N)c3)cc12` yielded an IC50 in assay [1] of 19 nM.
For the compound `Nc1cc(-c2ccc3occc3n2)cc(N)n1`, the 50% inhibitory concentration (IC50) in assay [1] was 10 nM.
The compound `COCCCn1c(C)nc2ccc(-c3cc(N)nc(N)c3)nc21` came in with an IC50 in assay [4] of 5 nM.
With `Nc1cc(-c2ccn3nccc3n2)cc(N)n1`, in assay [1], the IC50 came to 2 nM.
The same measure, in the same setting: the value for `Nc1cc(-c2ccc3ncnn3c2)cc(N)n1` was 15 nM.
On to `Cc1nc2ccc(-c3cc(N)nc(N)c3)nc2n1CCc1ccco1`, for which the IC50 in assay [4] was found to be 6 nM.
`Nc1cc(-c2ccc3occc(=O)c3c2)cc(N)n1`: 42 nM corresponded to half-maximal inhibition in assay [1] (IC50).
In turn, `Nc1cc(-c2ccc3ncoc3c2)cc(N)n1` came in with an IC50 in assay [1] of 10 nM.
As for `COCCCNc1cc(-c2ccc3occc3c2)cc(N)n1`, in assay [1], half-maximal inhibition (IC50) required 96 nM.
On the same count and under the same terms, for `COc1cc(-c2ccnc(N)c2)ccc1Cl` the value was 218 nM; for `Cn1cnc2cc(-c3cc(N)nc(N)c3)ccc21`, 14 nM.
In the case of `Nc1cc(-c2ccc3nccn3c2)cc(N)n1`, in assay [1], the 50% inhibitory concentration (IC50) was determined as 17 nM.
`COc1ccc(-c2ccnc(C)c2)cc1` returned an IC50 in assay [1] of 670 nM.
Take `c1cc(-c2ccc3occc3c2)cc(N2CCNCC2)n1`: the IC50 in assay [1] amounted to 3560 nM.
In assay [1], `COc1ccc(-c2cc(N)nc(N)n2)cc1` returned an IC50 of 158 nM.
For the compound `Cc1cc2cc(-c3cc(N)nc(N)c3)ccc2o1`, the IC50 in assay [1] was 34 nM; in assay [2], > 10000 nM; in assay [3] (read-out: IC50), 1800 nM.
Compound `Cc1cc(-c2ccc3occc3c2)cc(N)n1` returned an IC50 in assay [1] of 77 nM.
Turning to `Nc1cc(-c2ccc3oc(Cl)cc3c2)cc(N)n1`, the results for the IC50 in assay [1], in assay [2] and in assay [3] (u2os) were 76 nM, 5430 nM and “Not Active”, respectively.
`Cc1oc2ccc(-c3cc(N)nc(N)c3)cc2c1C`: the IC50 in assay [1] came out at 1 nM; in assay [2], 8840 nM; in assay [3] (read-out: IC50), 1650 nM; in assay [4] it was 21 nM.
`Nc1cc(-c2ccc3occc3c2)cc(N)n1`: the IC50 in assay [1] was 14 nM; in assay [2], 41 nM; in assay [3] (read-out: IC50) it was 500 nM.
`Nc1cc(-c2ccc3occc3c2)nc(N)n1` showed an IC50 in assay [1] of 36 nM.
For `Nc1cc(-c2ccc3c(c2)CCO3)cc(N)n1`, the IC50 in assay [1] came to 16 nM.
As to `Cn1cnc2ccc(-c3cc(N)nc(N)c3)nc21`, in assay [1], half-maximal inhibition (IC50) was put at 13 nM.
`Nc1cc(-c2ccc3ncsc3c2)cc(N)n1` came in with an IC50 in assay [1] of 1 nM.
With `Cc1nc2ccc(-c3cc(N)nc(N)c3)nc2n1C1CCCC1`, 1 nM corresponded to half-maximal inhibition in assay [4] (IC50).
The same measure, in the same setting: for `Cc1nc2ccc(-c3cc(N)nc(N)c3)nc2n1CCOc1ccccn1` the value was 34 nM.
Consider `Nc1cc(-c2ccc3ocnc3c2)cc(N)n1`, for which, in assay [1], inhibition was half-maximal at 22 nM (IC50).
In turn, `CNCC(=O)Nc1cc(-c2ccc3occc3c2)cc(N)n1` showed an IC50 in assay [1] of 168 nM.
In assay [1], `c1cc(-c2ccc3occc3c2)ccn1` gave an IC50 of 320 nM.
With `Cc1nc2ccc(-c3cc(N)nc(N)c3)nc2n1C[C@@H](C)Oc1ccccn1`, the results for the IC50 in assay [1], in assay [2] and in assay [4] were 7 nM, > 3000 nM and 116 nM, respectively.
`Nc1cc(-c2ccc3c(c2)CCO3)nc(N)n1` came in with an IC50 in assay [1] of 22 nM.
With `Cc1nc2ccc(-c3cc(N)nc(N)c3)nc2n1CCOc1ccccc1`, the Activity in the assay with RS4-11 [5] is recorded as 25%; in the assay on RS4-11 [6], 59%. This compound registered an IC50 in assay [4] of 9 nM.
As for `COc1ccc(-c2ccnc(N)c2)cc1`, in assay [1], the IC50 is 126 nM.
`Cc1nc2ccc(-c3cc(N)nc(N)c3)nc2n1C(C)(C)C` registered an IC50 in assay [4] of 6 nM.
For `Cc1cc(-c2ccc(Cl)cc2)ccn1`, the IC50 in assay [1] is > 10000 nM.
As to `Nc1cc(-c2ccc3occc3c2)ccn1`, half-maximal inhibition in assay [1] (IC50) required 19 nM.
`Cc1nc2ccc(-c3cc(N)nc(N)c3)nc2n1CCCC(F)(F)F` showed an IC50 in assay [4] of 10 nM.

Source of the values: ChEMBL document CHEMBL5042474, “Structure-Guided Discovery of Potent and Selective DYRK1A Inhibitors” (J Med Chem, 2021).
